According to the NIST ThermoML archive (doi:10.1016/j.jct.2016.07.005):
± gives the expanded uncertainty stated by the source.

Assay: refractive index (Na D-line) (dimensionless); xn = mol fraction of the nth substance listed
Details: 100 kPa, Liquid, Standard Abbe refractometry

CN1CCC[C@H]1c1cccnc1 [(-)-3-(N-methylpyrrolidino)pyridine] + CC(O)CO
refractive index
Details	x1 = 0.1	x1 = 0.2009	x1 = 0.3	x1 = 0.4016	x1 = 0.5	x1 = 0.6005	x1 = 0.7	x1 = 0.7983	x1 = 0.9	x1 = 1
293.15 K	1.45151 ± 0.00037	1.46746 ± 0.00037	1.48003 ± 0.00037	1.4907 ± 0.00037	1.49923 ± 0.00038	1.50631 ± 0.00038	1.51219 ± 0.00039	1.51744 ± 0.00039	1.52199 ± 0.0004	1.52665 ± 0.0004
298.15 K	1.44969 ± 0.00037	1.4656 ± 0.00037	1.47804 ± 0.00037	1.48864 ± 0.00037	1.49711 ± 0.00038	1.50413 ± 0.00038	1.50997 ± 0.00039	1.5152 ± 0.00039	1.51971 ± 0.0004	1.52439 ± 0.0004
303.15 K	1.448 ± 0.00037	1.46377 ± 0.00037	1.47612 ± 0.00037	1.48662 ± 0.00037	1.49496 ± 0.00038	1.50195 ± 0.00038	1.50774 ± 0.00039	1.51296 ± 0.00039	1.51749 ± 0.0004	1.52214 ± 0.0004
308.15 K	1.44622 ± 0.00037	1.46193 ± 0.00037	1.47424 ± 0.00037	1.48462 ± 0.00037	1.49301 ± 0.00038	1.49987 ± 0.00038	1.50568 ± 0.00039	1.51076 ± 0.00039	1.5153 ± 0.0004	1.51988 ± 0.0004
313.15 K	1.44441 ± 0.00037	1.46029 ± 0.00037	1.4723 ± 0.00037	1.48255 ± 0.00037	1.49092 ± 0.00038	1.49774 ± 0.00038	1.50345 ± 0.00039	1.5087 ± 0.00039	1.51312 ± 0.0004	1.5179 ± 0.0004
318.15 K	1.44265 ± 0.00037	1.45843 ± 0.00037	1.47031 ± 0.00037	1.48043 ± 0.00037	1.48871 ± 0.00038	1.49555 ± 0.00038	1.50118 ± 0.00039	1.50651 ± 0.00039	1.511 ± 0.0004	1.51592 ± 0.0004
323.15 K	1.44081 ± 0.00037	1.45653 ± 0.00037	1.46833 ± 0.00037	1.47837 ± 0.00037	1.48665 ± 0.00038	1.49341 ± 0.00038	1.49904 ± 0.00039	1.50435 ± 0.00039	1.50881 ± 0.0004	1.51373 ± 0.0004

CN1CCC[C@H]1c1cccnc1 [(-)-3-(N-methylpyrrolidino)pyridine] + CCC(C)O
refractive index
Details	x1 = 0.1	x1 = 0.2036	x1 = 0.3	x1 = 0.4	x1 = 0.5	x1 = 0.6	x1 = 0.6956	x1 = 0.8	x1 = 0.9	x1 = 1
293.15 K	1.41889 ± 0.00037	1.43839 ± 0.00037	1.4542 ± 0.00037	1.46843 ± 0.00037	1.48084 ± 0.00038	1.49173 ± 0.00038	1.50103 ± 0.00039	1.51029 ± 0.00039	1.51858 ± 0.0004	1.52665 ± 0.0004
298.15 K	1.41668 ± 0.00037	1.43618 ± 0.00037	1.45199 ± 0.00037	1.46621 ± 0.00037	1.47864 ± 0.00038	1.48952 ± 0.00038	1.4988 ± 0.00039	1.50803 ± 0.00039	1.51632 ± 0.0004	1.52439 ± 0.0004
303.15 K	1.41438 ± 0.00037	1.43393 ± 0.00037	1.44972 ± 0.00037	1.46397 ± 0.00037	1.47644 ± 0.00038	1.48735 ± 0.00038	1.49664 ± 0.00039	1.50585 ± 0.00039	1.5141 ± 0.0004	1.52214 ± 0.0004
308.15 K	1.41211 ± 0.00037	1.43166 ± 0.00037	1.44747 ± 0.00037	1.46172 ± 0.00037	1.4742 ± 0.00038	1.48511 ± 0.00038	1.49439 ± 0.00039	1.50359 ± 0.00039	1.51184 ± 0.0004	1.51988 ± 0.0004
313.15 K	1.40979 ± 0.00037	1.42936 ± 0.00037	1.44519 ± 0.00037	1.45945 ± 0.00037	1.47192 ± 0.00038	1.48284 ± 0.00038	1.49217 ± 0.00039	1.50145 ± 0.00039	1.50978 ± 0.0004	1.5179 ± 0.0004
318.15 K	1.40753 ± 0.00037	1.4271 ± 0.00037	1.44297 ± 0.00037	1.45725 ± 0.00037	1.46971 ± 0.00038	1.48065 ± 0.00038	1.49001 ± 0.00039	1.49933 ± 0.00039	1.50772 ± 0.0004	1.51592 ± 0.0004
323.15 K	1.40509 ± 0.00037	1.42476 ± 0.00037	1.44065 ± 0.00037	1.45496 ± 0.00037	1.46747 ± 0.00038	1.47843 ± 0.00038	1.48779 ± 0.00039	1.49711 ± 0.00039	1.5055 ± 0.0004	1.51373 ± 0.0004

CN1CCC[C@H]1c1cccnc1 [(-)-3-(N-methylpyrrolidino)pyridine] + CCCCO
refractive index
Details	x1 = 0.1	x1 = 0.196	x1 = 0.3	x1 = 0.3931	x1 = 0.5	x1 = 0.593	x1 = 0.7	x1 = 0.7931	x1 = 0.9	x1 = 1
293.15 K	1.42126 ± 0.00037	1.44053 ± 0.00037	1.45673 ± 0.00037	1.46978 ± 0.00037	1.48302 ± 0.00038	1.49254 ± 0.00038	1.50289 ± 0.00039	1.51169 ± 0.00039	1.51909 ± 0.0004	1.52665 ± 0.0004
298.15 K	1.41913 ± 0.00037	1.43825 ± 0.00037	1.45448 ± 0.00037	1.46759 ± 0.00037	1.48076 ± 0.00038	1.49031 ± 0.00038	1.50065 ± 0.00039	1.50945 ± 0.00039	1.51685 ± 0.0004	1.52439 ± 0.0004
303.15 K	1.41697 ± 0.00037	1.43598 ± 0.00037	1.45225 ± 0.00037	1.46538 ± 0.00037	1.47856 ± 0.00038	1.48808 ± 0.00038	1.49847 ± 0.00039	1.50721 ± 0.00039	1.51463 ± 0.0004	1.52214 ± 0.0004
308.15 K	1.41481 ± 0.00037	1.43367 ± 0.00037	1.45 ± 0.00037	1.46318 ± 0.00037	1.4763 ± 0.00038	1.48583 ± 0.00038	1.49623 ± 0.00039	1.50495 ± 0.00039	1.51238 ± 0.0004	1.51988 ± 0.0004
313.15 K	1.4127 ± 0.00037	1.43148 ± 0.00037	1.44779 ± 0.00037	1.46096 ± 0.00037	1.47404 ± 0.00038	1.48355 ± 0.00038	1.49404 ± 0.00039	1.5028 ± 0.00039	1.51035 ± 0.0004	1.5179 ± 0.0004
318.15 K	1.41058 ± 0.00037	1.42931 ± 0.00037	1.44562 ± 0.00037	1.45876 ± 0.00037	1.47184 ± 0.00038	1.48131 ± 0.00038	1.49183 ± 0.00039	1.50058 ± 0.00039	1.50823 ± 0.0004	1.51592 ± 0.0004
323.15 K	1.40842 ± 0.00037	1.42705 ± 0.00037	1.44337 ± 0.00037	1.45655 ± 0.00037	1.46958 ± 0.00038	1.47906 ± 0.00038	1.48961 ± 0.00039	1.49837 ± 0.00039	1.50604 ± 0.0004	1.51373 ± 0.0004

CN1CCC[C@H]1c1cccnc1 [(-)-3-(N-methylpyrrolidino)pyridine] + OCCCO
refractive index
Details	x1 = 0.1	x1 = 0.1999	x1 = 0.3	x1 = 0.3994	x1 = 0.5	x1 = 0.6004	x1 = 0.7	x1 = 0.8	x1 = 0.9	x1 = 1
293.15 K	1.45763 ± 0.00052	1.47282 ± 0.0005	1.48522 ± 0.00049	1.49551 ± 0.00047	1.50314 ± 0.00046	1.50913 ± 0.00045	1.51461 ± 0.00043	1.51947 ± 0.00042	1.5228 ± 0.00041	1.52665 ± 0.0004
298.15 K	1.4561 ± 0.00052	1.47118 ± 0.0005	1.4835 ± 0.00049	1.49364 ± 0.00047	1.50131 ± 0.00046	1.50702 ± 0.00045	1.51264 ± 0.00043	1.51729 ± 0.00042	1.52064 ± 0.00041	1.52439 ± 0.0004
303.15 K	1.45463 ± 0.00052	1.46959 ± 0.0005	1.48179 ± 0.00049	1.49178 ± 0.00047	1.49939 ± 0.00046	1.5052 ± 0.00045	1.51056 ± 0.00043	1.51508 ± 0.00042	1.51845 ± 0.00041	1.52214 ± 0.0004
308.15 K	1.45312 ± 0.00052	1.46793 ± 0.0005	1.48 ± 0.00049	1.48991 ± 0.00047	1.49739 ± 0.00046	1.50305 ± 0.00045	1.50843 ± 0.00043	1.51294 ± 0.00042	1.51623 ± 0.00041	1.51988 ± 0.0004
313.15 K	1.45171 ± 0.00052	1.46637 ± 0.0005	1.47831 ± 0.00049	1.48799 ± 0.00047	1.49571 ± 0.00046	1.50113 ± 0.00045	1.50703 ± 0.00043	1.51089 ± 0.00042	1.51476 ± 0.00041	1.5179 ± 0.0004
318.15 K	1.45006 ± 0.00052	1.46458 ± 0.0005	1.4764 ± 0.00049	1.48604 ± 0.00047	1.49341 ± 0.00046	1.49907 ± 0.00045	1.50429 ± 0.00043	1.50872 ± 0.00042	1.51216 ± 0.00041	1.51592 ± 0.0004
323.15 K	1.44849 ± 0.00052	1.46287 ± 0.0005	1.4746 ± 0.00049	1.48415 ± 0.00047	1.49147 ± 0.00046	1.49703 ± 0.00045	1.50221 ± 0.00043	1.5066 ± 0.00042	1.50996 ± 0.00041	1.51373 ± 0.0004
